Experimental data: PubChem BioAssay (NCI)
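Grown in 96-well plates, cells were treated for 48 hours with each compound at five concentrations. Insufficient inhibition: endpoint recorded as highest concentration tested. At the GI50, growth is halved. TGI denotes the concentration required for complete inhibition of growth.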

Experiments:
[1] = tested on: HOP-18 NSCLC; assay: NCI tumour cell line growth inhibition, 48 h
[2] = tested on: RXF-631 renal; assay: NCI tumour cell line growth inhibition, 48 h

SMILES | TGI [1] [µM] | GI50 [1] [µM] | TGI [2] [µM]
O=S(Cc1ccccc1)c1nc2ccccc2nc1-c1cccs1 (stereo not drawn) | 29.5 |  | 
CC1(C)OCN(c2ccc(N3CCOCC3)cc2)Cn2c1nc1ccccc12 | > 100 |  | 
C=C1C(=O)OC2/C=C(\C(=O)O)CC/C=C(\C)CC(OC(=O)/C=C(\C)CC)C12 (stereo not drawn) | 39.9 |  | 
N#C[S-].[La+3].c1cnc2c(c1)ccc1cccnc12.c1cnc2c(c1)ccc1cccnc12.c1cnc2c(c1)ccc1cccnc12 | 9.46 | 0.952 | 
Cc1ccc(S(=O)(=O)Nc2cccc3c(=O)[nH]cnc23)cc1 | > 100 |  | 
Cc1n(CC(C)C)c2c([n+]1C)C(=O)c1ccccc1C2=O | 3.63 |  | 
CN(C)/C=C/C(=CC=[N+](C)C)/C=C/N(C)C |  |  | > 100
